In article PMC3840147 (ACS chemical biology, 2013):

Assays:
HeLa cells = assay: Cellular SENP inhibition: SUMOylated proteins in HeLa cells by Western blot; assay type: cell-based; conditions: increasing concentrations, 48 h
SENP2 = biological target: T1, SENP2 (Homo sapiens, UniProt Q9HC62); assay: DUB-Glo bioluminescent peptide substrate assay, SENP2; assay type: biochemical; conditions: read-out: SENP2 IC50
T1 sequence (Q9HC62 364-589): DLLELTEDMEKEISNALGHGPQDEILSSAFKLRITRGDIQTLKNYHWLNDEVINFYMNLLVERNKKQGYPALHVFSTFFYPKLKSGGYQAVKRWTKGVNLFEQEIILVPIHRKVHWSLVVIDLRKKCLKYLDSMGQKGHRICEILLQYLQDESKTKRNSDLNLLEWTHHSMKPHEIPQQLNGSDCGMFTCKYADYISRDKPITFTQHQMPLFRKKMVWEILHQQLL

SENP7 = biological target: T2, SENP7 (Homo sapiens, UniProt Q9BQF6); assay: DUB-Glo bioluminescent peptide substrate assay, SENP7; assay type: biochemical; conditions: read-out: SENP7 IC50
T2 sequence (Q9BQF6 760-1050 limits assumed): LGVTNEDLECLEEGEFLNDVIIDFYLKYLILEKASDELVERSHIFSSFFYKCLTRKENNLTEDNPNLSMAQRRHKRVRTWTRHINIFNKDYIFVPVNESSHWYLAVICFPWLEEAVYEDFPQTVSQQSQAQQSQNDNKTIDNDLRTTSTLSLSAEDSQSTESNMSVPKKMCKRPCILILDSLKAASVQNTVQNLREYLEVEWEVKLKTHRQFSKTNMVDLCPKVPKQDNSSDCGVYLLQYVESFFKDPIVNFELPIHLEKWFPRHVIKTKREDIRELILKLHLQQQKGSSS

Row | IC50 (SENP2) [nM] | IC50 (SENP7) [nM] | SMILES | accumulation of SUMO-1 conjugates in cells (HeLa cells) | accumulation of SUMO-2/3 conjugates in cells (HeLa cells)
1 |  |  | Nc1ccc2ccccc2c1N=Nc1ccc(/C=C/c2ccc(N=Nc3c(N)ccc4ccccc34)cc2S(=O)(=O)O)c(S(=O)(=O)O)c1 [SPI-01] | less significant effects | SUMO-2/3 conjugates accumulated in cells and this accumulation correlated with inhibitor concentration
2 | > 60000 | 1900 ± 2200 | Cc1cc(N)ccc1/N=N/c1cc(S(=O)(=O)O)c2cccc(S(=O)(=O)O)c2c1 [SPI-07] |  | 
3 |  | 2800 ± 1600 | Nc1c(N=Nc2ccccc2)cc(S(=O)(=O)O)c2ccccc12 [SPI-08] |  | 
4 |  | 1900 ± 2100 | Nc1ccc2cc(S(=O)(=O)O)cc(S(=O)(=O)O)c2c1N=Nc1ccc(S(=O)(=O)O)cc1 [SPI-09] |  | 
